Among the test systems are HCT-116 colon; MDA-MB-435; HS 578T breast; A549 NSCLC; SNB-19 CNS; SW-620 colon; MDA-N; EKVX NSCLC; MALME-3M melanoma; NCI/ADR-RES ovarian; UACC-62 melanoma; IGROV1 ovarian; U251 CNS; NCI-H522 lung.
Common to all, as to assay: NCI anticancer screen, dose series, 48 h

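Grown in 96-well plates, cells were treated for 48 hours with each compound at five concentrations. Insufficient inhibition: endpoint recorded as highest concentration tested. GI50: concentration for 50% inhibition of growth. At the TGI there is no net growth.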 A value given as a limit tells only on which side of the number the result lay.

Take `CC(C)(C)OC(=O)C1/C(=C/CBr)CN1C(=O)OC(C)(C)C` (stereo unspecified): the TGI was 26.7 µM in the assay on HCT-116 colon; 29.7 µM in the assay with MDA-MB-435; 49.1 µM in the assay with HS 578T breast; 38 µM in the assay on A549 NSCLC; 32.5 µM in the assay on SNB-19 CNS; 19.4 µM in the assay with SW-620 colon. In addition, the TGI with MDA-N was determined as 29.7 µM; in the assay on EKVX NSCLC it was 37.3 µM; in the assay with MALME-3M melanoma, 35.4 µM; with NCI/ADR-RES ovarian it was 72.1 µM; with UACC-62 melanoma it was 33.4 µM; with IGROV1 ovarian, 26.2 µM.

As for `CC(C)CC1NC(=O)CCC(NC(=O)C(Cc2ccc(O)cc2)NC(=O)OCc2ccccc2)C(=O)NC(Cc2ccccc2)C(=O)NC(Cc2ccccc2)NC1=O` (stereo unspecified), the TGI with HCT-116 colon, in the assay with MDA-MB-435, in the assay on HS 578T breast, with U251 CNS, in the assay with A549 NSCLC and with SNB-19 CNS was greater than 100 µM in each case. Moreover, the TGI with SW-620 colon, in the assay on MDA-N, with EKVX NSCLC, with MALME-3M melanoma, in the assay with NCI/ADR-RES ovarian and in the assay with UACC-62 melanoma was greater than 100 µM each time. The compound also displayed a TGI with IGROV1 ovarian greater than 100 µM.

For `COc1ccc2[nH]c3c(O)c(-c4c(C)cc5c([nH]c6ccc(OC)cc65)c4O)c(C)cc3c2c1`, the TGI with HCT-116 colon amounted to 7.63 µM; in the assay on MDA-MB-435, 8 µM; in the assay with HS 578T breast, 11.5 µM; in the assay with U251 CNS it was 7.98 µM; in the assay on A549 NSCLC it was 7.97 µM; with SNB-19 CNS, 8.72 µM. The TGI is 10.3 µM with SW-620 colon; 8.22 µM in the assay on MDA-N; 9.2 µM in the assay on NCI-H522 lung; 7.8 µM in the assay on EKVX NSCLC; 8.13 µM in the assay on NCI/ADR-RES ovarian; 8.04 µM with IGROV1 ovarian. In addition, the values for the GI50 in the assay with MDA-MB-435 and in the assay on MDA-N were 4.34 µM and 4.5 µM, respectively.

Consider `CCN1C/C(=C\c2ccc(Cl)cc2)c2[nH]c(=O)c(C#N)c(-c3ccc(Cl)cc3)c2C1`, for which the TGI in the assay with HCT-116 colon, in the assay on MDA-MB-435, with U251 CNS, with A549 NSCLC, with SNB-19 CNS and in the assay on SW-620 colon was greater than 100 µM throughout. In addition, the TGI in the assay with MDA-N, in the assay with EKVX NSCLC, in the assay on MALME-3M melanoma, in the assay with NCI/ADR-RES ovarian, in the assay with UACC-62 melanoma and in the assay on IGROV1 ovarian was greater than 100 µM in each case.

On to `Oc1ccc(/C=N/c2nccs2)c(O)c1`, for which the TGI in the assay on HCT-116 colon, in the assay with HS 578T breast, with A549 NSCLC, in the assay on SNB-19 CNS, in the assay with MDA-N and with NCI-H522 lung was greater than 100 µM throughout. Besides, the TGI in the assay on EKVX NSCLC, in the assay with MALME-3M melanoma, in the assay on NCI/ADR-RES ovarian, in the assay on UACC-62 melanoma and in the assay on IGROV1 ovarian was greater than 100 µM throughout.

Regarding `CCOC(=O)c1csc(-c2cn(C)c3c2C(=O)C(OC)=CC3=O)n1`, the TGI in the assay with HCT-116 colon was greater than 100 µM; in the assay with MDA-MB-435, 11.1 µM; in the assay with HS 578T breast, greater than 58.8 µM; with U251 CNS, greater than 100 µM; with A549 NSCLC, 97.1 µM; in the assay on SNB-19 CNS it was greater than 100 µM. Besides, the TGI is greater than 100 µM in the assay on SW-620 colon; greater than 50.1 µM in the assay on MDA-N; greater than 100 µM with NCI-H522 lung; greater than 100 µM in the assay on EKVX NSCLC; greater than 100 µM in the assay on NCI/ADR-RES ovarian; greater than 59 µM in the assay with UACC-62 melanoma. Besides, in the assay with IGROV1 ovarian, the TGI is greater than 100 µM.

For the compound `CC(=O)N1N=C(c2ccc3ccccc3c2O)CC1c1ccc(N(C)C)cc1` (stereo unspecified), the TGI in the assay with HCT-116 colon, in the assay with MDA-MB-435, with HS 578T breast, in the assay with U251 CNS, in the assay on A549 NSCLC and in the assay with SW-620 colon was greater than 100 µM in each case. In addition, the TGI in the assay on MDA-N, with NCI-H522 lung, in the assay on MALME-3M melanoma, in the assay on NCI/ADR-RES ovarian, in the assay with UACC-62 melanoma and in the assay with IGROV1 ovarian was greater than 100 µM throughout.

For the compound `O=C1c2ccccc2C(=O)c2sc(Nc3ccc([N+](=O)[O-])cc3)nc21`, the TGI was determined as 15.2 µM in the assay on HCT-116 colon; 22.2 µM in the assay on HS 578T breast; 8.71 µM in the assay with U251 CNS; 41.7 µM in the assay with A549 NSCLC; 25.7 µM in the assay with SNB-19 CNS; 8.48 µM with SW-620 colon. Also, the TGI in the assay with MDA-N came out at 3.49 µM; in the assay with NCI-H522 lung it was 6.35 µM; in the assay on EKVX NSCLC, 23.2 µM; in the assay on MALME-3M melanoma, 12.6 µM; in the assay with UACC-62 melanoma, 8.31 µM; with IGROV1 ovarian it was 26.2 µM.

On to `CCOC(=O)c1nc2cc(F)cc(F)c2[nH]c1=O`, for which the TGI with HCT-116 colon, in the assay with MDA-MB-435, in the assay with HS 578T breast, in the assay on U251 CNS, in the assay with A549 NSCLC and in the assay on SNB-19 CNS was greater than 100 µM throughout. In addition, the TGI in the assay on SW-620 colon, in the assay on MDA-N, in the assay with NCI/ADR-RES ovarian, with UACC-62 melanoma and with IGROV1 ovarian was greater than 100 µM throughout.

Take `O=C(CCN1CCCC1)c1ccc(Oc2ccc(F)cc2)cc1`: the TGI with HCT-116 colon, in the assay on MDA-MB-435, in the assay on HS 578T breast, with U251 CNS, in the assay on A549 NSCLC and with SNB-19 CNS was greater than 100 µM throughout. In addition, the TGI with SW-620 colon, with MDA-N, in the assay on EKVX NSCLC, in the assay on MALME-3M melanoma, in the assay with NCI/ADR-RES ovarian and in the assay with UACC-62 melanoma was greater than 100 µM each time. In the assay with IGROV1 ovarian, this compound registered a TGI greater than 100 µM.

In the case of `C[C@H]1S[C@H](c2c(F)cccc2F)n2c1nc1ccccc12`, the TGI with HCT-116 colon, in the assay on MDA-MB-435, in the assay on HS 578T breast, in the assay on U251 CNS, with A549 NSCLC and in the assay on SNB-19 CNS was greater than 100 µM throughout. The TGI in the assay on SW-620 colon, with MDA-N, in the assay with EKVX NSCLC, in the assay on MALME-3M melanoma, in the assay on NCI/ADR-RES ovarian and in the assay on UACC-62 melanoma was greater than 100 µM each time. In the assay on IGROV1 ovarian, this compound had a TGI greater than 100 µM.

The values are drawn from PubChem BioAssay (NCI).
